Source: BindingDB's records for doi:10.7270/Q2TX3CTT (Broad Institute, 2010)
Where a name gives a salt, the structure may show the parent alone.

Target: Glycogen synthase kinase-3 beta (Homo sapiens, UniProt P49841)
Experiment: GSK3beta kinase inhibitor potency, dose response, biochemical, luminescence, cell-free homogeneous, retest (AID 434954)

Chain of Glycogen synthase kinase-3 beta (P49841 whole entry): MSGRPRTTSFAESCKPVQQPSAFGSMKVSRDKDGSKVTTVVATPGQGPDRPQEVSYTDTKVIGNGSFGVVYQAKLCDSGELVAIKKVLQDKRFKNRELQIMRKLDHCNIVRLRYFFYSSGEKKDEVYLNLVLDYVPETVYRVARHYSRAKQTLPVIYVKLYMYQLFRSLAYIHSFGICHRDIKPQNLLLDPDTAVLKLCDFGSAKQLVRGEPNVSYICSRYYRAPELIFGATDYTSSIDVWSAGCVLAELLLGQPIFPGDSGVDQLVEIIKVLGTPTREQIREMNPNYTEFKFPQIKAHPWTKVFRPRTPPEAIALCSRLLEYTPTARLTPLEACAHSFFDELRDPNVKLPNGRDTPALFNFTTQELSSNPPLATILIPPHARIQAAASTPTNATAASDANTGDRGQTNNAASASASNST

O=C(Nc1ccc(O)c2c(=O)cc(-c3ccccc3Cl)oc12)c1ccc(F)cc1 [N-[2-(2-chlorophenyl)-5-oxidanyl-4-oxidanylidene-chromen-8-yl]-4-fluoranyl-benzamide]
EC50: 13.9 µM

COc1cccc(C(=O)NCC(c2ccco2)N2CCc3ccccc3C2)c1 (stereo not given) [N-[2-(3,4-dihydro-1H-isoquinolin-2-yl)-2-(furan-2-yl)ethyl]-3-methoxy-benzamide]
EC50: > 300 µM

COc1ccccc1N(CC(=O)N1CCc2ccccc2C1)S(C)(=O)=O [N-[2-(3,4-dihydro-1H-isoquinolin-2-yl)-2-oxoethyl]-N-(2-methoxyphenyl)methanesulfonamide]
EC50: > 300 µM

COc1ccc(CCNc2nc(-c3cccnc3)nc3ccccc23)cc1OC [N-[2-(3,4-dimethoxyphenyl)ethyl]-2-pyridin-3-ylquinazolin-4-amine]
EC50: > 300 µM

CCN1CCN(c2cc(C)c3cc(NC(=O)c4cccc(OC)c4)ccc3n2)CC1 [N-[2-(4-ethylpiperazin-1-yl)-4-methyl-quinolin-6-yl]-3-methoxy-benzamide]
EC50: > 300 µM

CCN1CCN(c2cc(C)c3cc(NC(=O)c4cc(OC)cc(OC)c4)ccc3n2)CC1 [N-[2-(4-ethylpiperazin-1-yl)-4-methylquinolin-6-yl]-3,5-dimethoxybenzamide]
EC50: > 300 µM

CN1CCN(CCNC(=O)Nc2ccccc2[N+](=O)[O-])CC1 [N-[2-(4-methylpiperazin-1-yl)ethyl]-N'-(2-nitrophenyl)urea]
EC50: > 300 µM

CCN(CC)CCNC(=O)C(=O)Nc1ccc2c(c1)N(S(=O)(=O)c1cccs1)CCC2 [N-[2-(diethylamino)ethyl]-N'-(1-thiophen-2-ylsulfonyl-3,4-dihydro-2H-quinolin-7-yl)oxamide]
EC50: > 300 µM

Cc1ccc2sc(N(CCN(C)C)C(=O)c3ccc(S(=O)(=O)N4CC(C)OC(C)C4)cc3)nc2c1C (stereo not given) [N-[2-(dimethylamino)ethyl]-N-(4,5-dimethyl-1,3-benzothiazol-2-yl)-4-(2,6-dimethylmorpholin-4-yl)sulfonyl-benzamide;hydrochloride]
EC50: > 300 µM

Cc1ccc(S(=O)(=O)NCC(=O)N(CCc2ccccc2)CC(=O)NCc2ccco2)cc1 [N-[2-(furan-2-ylmethylamino)-2-oxoethyl]-2-[(4-methylphenyl)sulfonylamino]-N-(2-phenylethyl)acetamide]
EC50: > 300 µM

CCn1cc(CN2CCC(n3nccc3NC(=O)CCCc3ccccc3)CC2)cn1 [N-[2-[1-[(1-ethylpyrazol-4-yl)methyl]piperidin-4-yl]pyrazol-3-yl]-4-phenyl-butanamide]
EC50: > 300 µM

O=C(Nc1ccnn1C1CCN(Cc2cccc(OCCO)c2)CC1)C1CCCC1 [N-[2-[1-[[3-(2-hydroxyethyloxy)phenyl]methyl]piperidin-4-yl]pyrazol-3-yl]cyclopentanecarboxamide]
EC50: > 300 µM

CCC(C)NCCOCCOc1ccc(Cl)cc1Br (stereo not given) [N-[2-[2-(2-bromo-4-chlorophenoxy)ethoxy]ethyl]-2-butanamine;oxalic acid]
EC50: > 300 µM

COc1ccc(C(C)=NNC(=O)CNC(=O)Cc2ccccc2)c(OC)c1 [N-[2-[2-[1-(2,4-dimethoxyphenyl)ethylidene]hydrazinyl]-2-oxoethyl]-2-phenylacetamide]
EC50: > 300 µM

O=C(NCC(c1ccco1)N1CCN(c2ccc(F)cc2)CC1)c1ccc2c(c1)OCO2 (stereo not given) [N-[2-[4-(4-fluorophenyl)-1-piperazinyl]-2-(2-furanyl)ethyl]-1,3-benzodioxole-5-carboxamide]
EC50: > 300 µM

Cc1ccc(C(C(=O)NC2CCCCC2)N(CC2CCCO2)C(=O)CNC(=O)c2cccs2)cc1 (stereo not given) [N-[2-[[2-(cyclohexylamino)-1-(4-methylphenyl)-2-oxoethyl]-(oxolan-2-ylmethyl)amino]-2-oxoethyl]thiophene-2-carboxamide]
EC50: > 300 µM

Cc1ccc(N2CC(C(=O)Nc3c4c(nn3C(C)(C)C)CS(=O)(=O)C4)CC2=O)cc1 (stereo not given) [N-[2-tert-butyl-5,5-bis(oxidanylidene)-4,6-dihydrothieno[3,4-c]pyrazol-3-yl]-1-(4-methylphenyl)-5-oxidanylidene-pyrrolidine-3-carboxamide]
EC50: > 300 µM

COCCn1c(SCC(=O)Nc2nc(C)c(Cl)cc2Cl)nc2ccccc21 [N-[3,5-bis(chloranyl)-6-methyl-pyridin-2-yl]-2-[1-(2-methoxyethyl)benzimidazol-2-yl]sulfanyl-ethanamide]
EC50: > 300 µM

c1ccc(-c2nc(NCCCn3ccnc3)c3oc4ccccc4c3n2)cc1 [N-[3-(1-imidazolyl)propyl]-2-phenyl-4-benzofuro[3,2-d]pyrimidinamine;hydrochloride]
EC50: 34.7 µM

O=C(Nc1cccc(-c2cnc3ccccc3n2)c1)c1ccccc1 [N-[3-(2-quinoxalinyl)phenyl]benzamide]
EC50: > 300 µM

CCN1CCN(CCCNC(=O)c2ccc3c(c2)NC(=O)c2ccccc2S3)CC1 [N-[3-(4-ethylpiperazin-1-yl)propyl]-6-oxo-5H-benzo[b][1,4]benzothiazepine-3-carboxamide]
EC50: > 300 µM

CCCN(CCC)CCCNc1ccc2nnc(-c3ccc(F)cc3)n2n1 [N-[3-(4-fluorophenyl)-[1,2,4]triazolo[4,3-b]pyridazin-6-yl]-N',N'-dipropyl-propane-1,3-diamine]
EC50: 11.3 µM

CN1CCN(CCCNC(=O)Nc2ccc([N+](=O)[O-])cc2)CC1 [N-[3-(4-methylpiperazin-1-yl)propyl]-N'-(4-nitrophenyl)urea]
EC50: > 300 µM

COc1ccccc1N1CCN(CCCNC(=O)C2CCCN(c3ncnc4c3nc3n4CCCCC3)C2)CC1 (stereo not given) [N-[3-[4-(2-methoxyphenyl)piperazin-1-yl]propyl]-1-(7,8,9,10-tetrahydro-6H-purino[9,8-a]azepin-4-yl)piperidine-3-carboxamide]
EC50: 156 µM

O=C(NCCCN1CCN(Cc2ccccc2)CC1)C1CCN(S(=O)(=O)N2CCCC2)CC1 [N-[3-[4-(phenylmethyl)-1-piperazinyl]propyl]-1-(1-pyrrolidinylsulfonyl)-4-piperidinecarboxamide]
EC50: > 300 µM

O=C(Nc1sccc1C(=O)N1CCOCC1)c1cccnc1 [N-[3-[4-morpholinyl(oxo)methyl]-2-thiophenyl]-3-pyridinecarboxamide]
EC50: 29.2 µM

CC1Cc2cc(-c3csc(NC(=O)Cc4ccccc4)n3)ccc2N1S(C)(=O)=O (stereo not given) [N-[4-(1-Methanesulfonyl-2-methyl-2,3-dihydro-1H-indol-5-yl)-thiazol-2-yl]-2-phenyl-acetamide]
EC50: > 300 µM

Cc1ncc(CN2CCCC(C(=O)Nc3ccc(-c4cccc(F)c4)cc3)C2)cn1 (stereo not given) [N-[4-(3-fluorophenyl)phenyl]-1-[(2-methylpyrimidin-5-yl)methyl]piperidine-3-carboxamide]
EC50: > 300 µM

O=C(Nc1ccc(N2CCN(Cc3ccccc3)CC2)cc1)c1ccccc1[N+](=O)[O-] [N-[4-(4-benzyl-1-piperazinyl)phenyl]-2-nitrobenzamide]
EC50: > 300 µM

CC(=O)Nc1ccc(S(=O)(=O)NCc2ccc(C)n2C)cc1 [N-[4-[(1,5-dimethylpyrrol-2-yl)methylsulfamoyl]phenyl]ethanamide]
EC50: > 300 µM

CC(=O)Nc1ccc(S(=O)(=O)N(Cc2cccnc2)Cc2cc3ccccc3nc2O)cc1 [N-[4-[(2-oxidanylidene-1H-quinolin-3-yl)methyl-(pyridin-3-ylmethyl)sulfamoyl]phenyl]ethanamide]
EC50: > 300 µM

CCCCC(=O)Nc1ccc(C(=O)NNC(=O)CCCOc2ccc(Cl)cc2Cl)cc1 [N-[4-[[[4-(2,4-dichlorophenoxy)-1-oxobutyl]hydrazo]-oxomethyl]phenyl]pentanamide]
EC50: > 300 µM

CC1(C)CC2CC(C)(CN2S(=O)(=O)c2ccc(C(=O)Nc3ccc(Cl)c(S(=O)(=O)N4CCOCC4)c3)cc2)C1 (stereo not given) [N-[4-chloro-3-(4-morpholinylsulfonyl)phenyl]-4-[(3,3,5-trimethyl-7-azabicyclo[3.2.1]octan-7-yl)sulfonyl]benzamide]
EC50: > 300 µM

CCCCC(=O)Nc1cc(C)c(NC(=O)c2cccs2)cn1 [N-[4-methyl-6-(1-oxopentylamino)-3-pyridinyl]-2-thiophenecarboxamide]
EC50: > 300 µM

CC(=O)Nc1cc(-c2ccc(Cl)cc2)n[nH]1 [N-[5-(4-chlorophenyl)-1H-pyrazol-3-yl]acetamide]
EC50: 23.8 µM

CCCCC(=O)Nc1ncc(S(=O)(=O)c2ccc([N+](=O)[O-])cc2)s1 [N-[5-(4-nitrophenyl)sulfonyl-2-thiazolyl]pentanamide]
EC50: > 300 µM

O=C1N=C(NS(=O)(=O)Cc2ccccc2)S/C1=C/c1ccc2c(c1)OCO2 [N-[5-[1-Benzo[1,3]dioxol-5-yl-meth-(E)-ylidene]-4-oxo-thiazolidin-(2E)-ylidene]-C-phenyl-methanesulfon amide]
EC50: 18.8 µM

CC(=O)Nc1nnc(CSCc2ccc(F)cc2)s1 [N-[5-[(4-fluorophenyl)methylsulfanylmethyl]-1,3,4-thiadiazol-2-yl]acetamide]
EC50: > 300 µM

CCOc1ccc2c(c1)C(NC(C)=O)C(=O)N2CCN1CCOCC1 (stereo not given) [N-[5-ethoxy-1-(2-morpholin-4-ylethyl)-2-oxo-3H-indol-3-yl]acetamide;hydrochloride]
EC50: > 300 µM

CCc1cc(C(=O)c2ccc(OC)cc2)c(NC(=O)CN2CCN(C)CC2)s1 [N-[5-ethyl-3-(4-methoxyphenyl)carbonyl-thiophen-2-yl]-2-(4-methylpiperazin-1-yl)ethanamide]
EC50: > 300 µM

Cc1cc(C(=O)c2ccccc2)c(NC(=O)CN2CCOCC2)s1 [N-[5-methyl-3-(phenylcarbonyl)thiophen-2-yl]-2-morpholin-4-yl-ethanamide]
EC50: > 300 µM

COc1ccc2nc3c(cc2c1)c(NC(=O)C1CCCO1)nn3CC(C)C (stereo not given) [N-[6-methoxy-1-(2-methylpropyl)-3-pyrazolo[3,4-b]quinolinyl]-2-oxolanecarboxamide]
EC50: 0.946 µM

COc1ccc2nc3c(cc2c1)c(NC(=O)CC(C)C)nn3CC(C)C [N-[6-methoxy-1-(2-methylpropyl)-3-pyrazolo[3,4-b]quinolinyl]-3-methylbutanamide]
EC50: > 300 µM

CCC(=O)Nc1nn(CC(C)C)c2nc3ccc(C)cc3cc12 [N-[6-methyl-1-(2-methylpropyl)pyrazolo[3,4-b]quinolin-3-yl]propanamide]
EC50: > 300 µM

Cc1c([CH+][N-]NC(=O)COc2ccccc2[N+](=O)[O-])c2ccccc2n1C [N-[(1,2-dimethylindol-3-yl)methylideneamino]-2-(2-nitrophenoxy)acetamide]
EC50: > 300 µM
